# Laboratory results reported in patent US20060211606A1, “Peptides” (priority 2005, published 2006).
# Where no end group is shown, it is not given here. [ ]: non-standard residue; d: D form. The star is where a group is joined. Hexanoyl = CCCCCC(=O)*; PEG = not defined here; Ahx = NCCCCCC(=O)O
# How the values were obtained:
# C2C12 muscle cells [1] = experiment: C2C12 proliferation, BrdU incorporation; type: cell-based, mouse; settings: 500 cells per well; 0.1, 1, 10 and 100 ng/ml; stimulation 24 hours, BrdU 5 hours
# Description: (B) Peptides A2, A4, A6 and A8: C2C12 muscle cells at a 500 cells/well. Cultivation was carried out for 24 hours in 10% FBS, followed by starvation for 24 hours in 0.1% BSA, stimulation for 24 hours and then treatment with BrdU for 5 hours. Concentrations of 0.1, 1, 10 and 100 ng/ml of peptides A2, A4, A6 and A8 were tested, along with 0.1, 1, 10 and 100 ng/ml IGF-I (See the right-hand set of results). BrdU incorporation was measured to assess the level of cell proliferation achieved. Controls containing no cells, medium only, 5% FBS and no BrdU were also provided. Values on the Y-axis are for fluorescence (absorbence at 370 nm; mean plus standard error across 4 wells). The first column on the left relates to a control in which no cells were present. The next four relate to peptide A2 at concentrations of 0.1, 1, 10 and 100 ng/ml. The next four relate to peptide A4 at concentrations of 0.1, 1, 10 and 100 ng/ml. The central three relate to controls containing medium only (med), 5% FBS) and no BrdU. The next four relate to peptide A6 at concentrations of 0.1, 1, 10 and 100 ng/ml. The next four relate to peptide A8 at concentrations of 0.1, 1, 10 and 100 ng/ml. The right-hand group of results relate to IGF-I (See Example 1.5) at concentrations of 0.1, 1, 10 and 100 ng/ml.
# The 8 amino acid peptides described in 1.3.2 above and referred to in FIG. 8B as A2, A4, A6 and A8 were tested for the ability to induce proliferation of C2C12 muscle cells at a density of 500 cells per well. Cultivation was carried out for 24 hours in 10% FBS, followed by starvation for 24 hours in 0.1% BSA, stimulation for 24 hours and then treatment with BrdU for 5 hours. Concentrations of 0.1, 1, 10 and 100 ng/ml of peptides A2, A4, A6 and A8 were tested, along with 0.1, 1, 10 and 100 ng/ml IGF-I (See the right-hand set of results in FIG. 8B). Incorporation of BrdU was measured to assess the level of cell proliferation achieved. Controls containing no cells, medium only, 5% FBS and no BrdU were also provided.
# C2C12 muscle cells [2] = experiment: C2C12 proliferation, Alamar Blue assay; type: cell-based, mouse; settings: 2000 cells per well; 2, 5, 50 and 100 ng/ml; medium with IGF-I 2 ng per ml; 36 hours
# Description: (A) DMGF and CMGF Peptides: C2C12 Cells were provided at 2000 cell/well, in a medium containing DMEM (1000 mg/L glucose), plus BSA(100 ug/ml), plus IGF-I (2 ng per ml) and incubated for 36 hours. Cell proliferation was then assessed using an Alamar Blue assay. […] Y-axis values are fluorescence (wavelength of excitation 535 nm, measurement at 590 nm; mean plus standard error) in an Alamar Blue assay.
# The 8 amino acid peptides described in 1.3.1 above and referred to in FIG. 8A as DMGF and CMGF were tested for the ability to induce proliferation of C2C12 muscle cells at a density of 2000 cells per well in a medium containing DMEM (1000 mg/L glucose), BSA (10 ug/ml) and IGF-I (2 ng per ml). Concentrations of 2, 5, 50 and 100 ng/ml of DMGF and CMGF were tested (See the left-hand and middle sets of results in FIG. 8), along with 2, 5, 50 and 100 ng/ml IGF-I alone (See the right-hand set of results in FIG. 8). After 36 hours incubation, an Alamar Blue assay was used to assess the level of cell proliferation achieved. A control containing only the medium was also provided.
# [3] = test system: mononucleated myoblasts (satellite cells); experiment: Myoblast replication, cell number by Alamar Blue method (0 to 3 scale); type: cell-based
# Description: FIG. 2: Effect of Alanine substitution and C-terminal and N-terminal truncation on stability and biological activity—further sequence alignment, comparing modified sequences of Peptides 1-6 (SEQ ID NOS: 15-20) and Short peptides 1-4 (SEQ NOS: 21-24), and detailing impact of changes on stability as measured by incubation in human plasma and biological activity as measured by testing on muscle cell line (see Examples for details of test procedures).
# In this regard, one method of assessing biological activity is the Alamar Blue method as discussed in Example 5.2.2. This involves contacting a polypeptide with mononucleated myoblast cells and assessing the extent to which it causes them to proliferate. This can be scored in any suitable way, e.g. on a scale of 0 to 3 as discussed in the Examples. Activity may also be measured via cyclins, such as cyclin ID, which are early markers of cell division. Activity may also be measured via the use of bromodeoxy uridine (BrdU).
# Biological activity was determined using an in vitro system by measuring the ability of the C terminal peptides to induce mononucleated myoblasts (satellite cells) to replicate. Cell number was determined using the Alamar Blue method.
# [4] = Stability to proteolytic cleavage in fresh human plasma, Western blotting
# Description: Western blotting was then used to assess the survival of each peptide over those time intervals: A=0 minutes; B=30 minutes; C=2 hours; D=24 hours.
# Stability may be assessed in terms of half-life in human plasma or by any other suitable technique. In particular, stability can be measured by assessing peptides' susceptibility to proteolytic cleavage in fresh human plasma according to the technique of Example 5.1 below, in which the plasma was stored until used at −70° C., 10 μg of peptide was added to 2 ml of plasma, plus 7 ml of PBS and the mixture was incubated at 37° C. for different time intervals. Western blotting was then used to detect each peptide over those time intervals.
# The plasma was stored until used at −70° C. 10 μg of peptide were added to 2 ml of plasma, plus 7 ml of PBS. This mixture was incubated at 37° C. for different time intervals.
# Like biological activity, stability was scored on a scale of 0 to 3.
# Stability was determined as the amount of the peptide that remained intact and bound to the specific antibody in the following way:
Substance,proliferation of C2C12 cells (BrdU incorporation) (C2C12 muscle cells [1]),biological activity score (scale of 0 to 3) [3],further results
"A2: Gly-Ser-Thr-Phe-Glu-Glu-Arg-Lys (SEQ ID NO:34), amidated at the C-terminus, unmodified at the N-terminus (H-GSTFEERK-NH2) [Peptide A2]",induced cell proliferation,–,–
"A4: Gly-Ser-Thr-Phe-Glu-Glu-Arg-Lys (SEQ ID NO:34), amidated at the C-terminus, hexanoic acid moiety at the N-terminus (Hexanoyl-GSTFEERK-NH2; SMILES CCCCCC(=O)NCC(=O)N[C@@H](CO)C(=O)N[C@H](C(=O)N[C@@H](Cc1ccccc1)C(=O)N[C@@H](CCC(=O)O)C(=O)N[C@@H](CCC(=O)O)C(=O)N[C@@H](CCCNC(=N)N)C(=O)N[C@@H](CCCCN)C(N)=O)[C@@H](C)O) [Peptide A4]",induced cell proliferation,–,–
"A6: Gly-Ser-Thr-Phe-Glu-Glu-Arg-Lys (SEQ ID NO:34), amidated at the C-terminus, amino-hexanoic acid moiety at the N-terminus ([Ahx]GSTFEERK-NH2; N-terminus assumed; SMILES C[C@@H](O)[C@H](NC(=O)[C@H](CO)NC(=O)CNC(=O)CCCCCN)C(=O)N[C@@H](Cc1ccccc1)C(=O)N[C@@H](CCC(=O)O)C(=O)N[C@@H](CCC(=O)O)C(=O)N[C@@H](CCCNC(=N)N)C(=O)N[C@@H](CCCCN)C(N)=O) [Peptide A6]",induced cell proliferation,–,–
"A8: Gly-Ser-Thr-Phe-Glu-Glu-His-Lys (SEQ ID NO:33), amidated at the C-terminus, hexanoic acid at the N-terminus (Hexanoyl-GSTFEEHK-NH2; SMILES CCCCCC(=O)NCC(=O)N[C@@H](CO)C(=O)N[C@H](C(=O)N[C@@H](Cc1ccccc1)C(=O)N[C@@H](CCC(=O)O)C(=O)N[C@@H](CCC(=O)O)C(=O)N[C@@H](Cc1c[nH]cn1)C(=O)N[C@@H](CCCCN)C(N)=O)[C@@H](C)O) [Peptide A8]",induced cell proliferation,–,–
"CMGF: Gly-Ser-Thr-Phe-Glu-Glu-His-Lys (SEQ ID NO:33), N-terminal hexanoic acid, amidated at the C-terminal end (Hexanoyl-GSTFEEHK-NH2; SMILES CCCCCC(=O)NCC(=O)N[C@@H](CO)C(=O)N[C@H](C(=O)N[C@@H](Cc1ccccc1)C(=O)N[C@@H](CCC(=O)O)C(=O)N[C@@H](CCC(=O)O)C(=O)N[C@@H](Cc1c[nH]cn1)C(=O)N[C@@H](CCCCN)C(N)=O)[C@@H](C)O)",–,–,proliferation of C2C12 cells (Alamar Blue fluorescence) (C2C12 muscle cells [2]): induced cell proliferation
"DMGF: Gly-Ser-Thr-Phe-Glu-Glu-His-Lys (SEQ ID NO:33), N-terminal PEGylation, amidated at the C-terminal end ({PEG}-GSTFEEHK-NH2; reading uncertain; also: printed as Gly-Ser-Thr-Phe-Glu-Glu-His-Lys)",–,–,proliferation of C2C12 cells (Alamar Blue fluorescence) (C2C12 muscle cells [2]): induced cell proliferation
Short peptide 2: SEQ ID NO: 15 with Arg14→Ala and the four C-terminal amino acids removed (YQPPSTNKNTKSQARKGSTF),–,zero,–
Short peptide 3: SEQ ID NO: 15 with Arg14→Ala and the three N-terminal amino acids removed (PSTNKNTKSQARKGSTFEEHK),–,zero,–
Short peptide 4: SEQ ID NO: 15 with Arg14→Ala and the five N-terminal amino acids removed (TNKNTKSQARKGSTFEEHK),–,zero,–
YQPPSTNKNTKAQRRKGSTFEEHK [Peptide 3],–,3 (significant increase in cell number at 1 h.),–
YQPPSTNKNTKSQAAKGSTFEEHK [Peptide 6],–,zero,–
YQPPSTNKNTKSQRRKGSTFEEHK [Peptide 1],–,–,"stability score (scale of 0 to 3) ([4]; fresh human plasma, Western blotting, intact peptide bound to specific antibody): 1 (marked loss of detectable antibody binding by ½ hours.); biological activity (in words) [3]: little or no activity"
"YQPPSTNKNTKSQRRKGSTFEERK [native human MGF C terminal Ec peptide, reference compound]",–,–,half-life in human plasma ([4]; human plasma): short half-life
